Where two headings read alike, the source gives them in different places.
What was measured:
[1] = test system: ovarian cancer cell lines; assay: qHTS ATPlite cell viability, ovarian cancer cell lines; assay type: cell-based, human; conditions: Ovarian cell line killer; for IC50: mean of cell lines fulfilling criteria, 48 h, read-out: Average IC50; for Average SI: vs HEK 293T, >100 = inactive in HEK293T
[2] = test system: HeLa cells; assay: qHTS ATPlite cell viability, HeLa cells; assay type: cell-based, human; conditions: for Avg SI: HeLa selective compounds, vs HEK 293T; for IC50: HeLa, confirmation screen, 48 h
[3] = test system: CAOV-3 cells; assay: ATP content (ATPlite) cell viability assay in CAOV-3 cells; assay type: cell-based, human; conditions: Homo sapiens, Caov-3, assay optimization
Protocol: (§1) The ATPlite luminescence assay system assay kit was used to determine cell viability. The reagent was reconstituted and prepared as described by the manufacturer. To measure the cell death caused by the compounds, cells were cultured in 4 μl of media for 16 hours at 37°C with 5% CO2 in assay plates, followed by the addition of DMSO or 16 SOC chemotherapeutic compounds dissolved in DMSO. SOC compounds were dosed at 11 concentrations (1:3 dilution) in quadruplicate from 57.5 μM to 0.977 nM using the automated Wako 1536 Pin Tool workstation and incubated at 37°C with 5% CO2 for 24, 48, or 72 hours. Four microliters of ATPlite, the ATP monitoring reagent, was then added to each well of the assay plates using the Multidrop Combi reagent dispenser followed by incubation for 15 minutes at room temperature. The resulting luminescence was measured using the ViewLux plate reader. Data were normalized for each drug using the largest luminescence value as 100% full cell viability (0% cell killing) and to the smallest luminescence value 0% viability (100% cell killing).

[4] = test system: PA-1 cells; assay: ATP content (ATPlite) cell viability assay in PA-1 cells; assay type: cell-based, human; conditions: for IC50: Homo sapiens, PA-1; for Avg SI: PA-1 selective compounds, vs HEK 293T, >100 = inactive in HEK293T
[5] = test system: 11 gynecologic cancer cell lines; assay: qHTS ATPlite cell viability, gynecologic cancer cell lines (ovarian, cervical, placental); assay type: cell-based, human; conditions: for Cell Lines Active: number of the 11 cancer cell lines in which the compound is active (<1 μM potency, >70% efficacy); for Average SI: selectivity index vs HEK 293T
Protocol: as §1
(§2) A qHTS [79], in which each compound was assayed in five concentrations (0.092, 0.46, 2.3, 11.5, and 57.5 μM), was performed for the primary compound screen using the NPC [80] and NPACT drug libraries at NCATS. The OBGYN cancer and HEK 293T control cells were seeded into 1536-well assay plates at 1000 cells per 4 μl/well and incubated at 37°C in 5% CO2 for 48 hours. The ATPlite assay to determine the IC50 values for each compound was conducted as described above. Plates were processed on the fully integrated Kalypsys robotic system.

[6] = test system: placental cancer cell lines (JAR, JEG-3); assay: qHTS ATPlite cell viability, placental cancer cell lines; assay type: cell-based, human; conditions: Placental cancer cell line killer; for IC50: Homo sapiens, JEG-3, mean of cell lines fulfilling criteria, 48 h, read-out: Average IC50
Protocol: as §1
The ATPlite assay to determine the IC50 values for each compound was conducted as described above. Plates were processed on the fully integrated Kalypsys robotic system.

[7] = test system: HEK 293T cells; assay: cells; conditions: 48 h; for IC50: read-out: IC50 (HEK 293T toxicity)
Protocol: as §1, §2

[8] = test system: HEK 293T cells; design: method as in PMID 31498718; conditions: CellTiterGlo, cited from earlier work
[9] = confirmation screen, 48 h, read-out: Avg IC50
[10] = Homo sapiens, average IC90 over the cell lines in which the compound is active, read-out: IC90
[11] = HEK 293T, this screen (ATPlite)
[12] = toxic compounds, average over all cancer cell lines, mean ± S.D.

Question: For `CNc1nccc(-c2cccnc2Oc2cc(C(=O)Nc3cccc(C(F)(F)F)c3)ccc2C)n1` [AMG-Tie2-1], which IC50 [1] is on record?
Answer: Its IC50 is 15900 ± 9710 nM.

Question: What about the “Average SI” value [1] of the same molecule?
Answer: The value was over 100.

Question: What does the source list for `Cc1cc(Nc2nc(N[C@@H](C)c3ccc(F)cc3)c(C#N)cc2F)[nH]n1` [AZ-960]?
Answer: IC50 ([1]; Homo sapiens): 12000 ± 7750 nM; Average SI [1]: >100

Question: Which “Avg SI” value [2] does the source give for `COc1cc(N2CCC(N)CC2)ccc1Nc1ncc(Cl)c(-c2c[nH]c3ccccc23)n1` [AZD3463] here?
Answer: The value was 30.3.

Question: What about the IC50 [2] of the same molecule?
Answer: Its IC50 is 638 nM.

Question: Which IC50 ([3]; 24 hours incubation) does the source give for `COc1cccc2c1C(=O)c1c(O)c3c(c(O)c1C2=O)C[C@@](O)(C(=O)CO)C[C@@H]3O[C@H]1C[C@H](N)[C@H](O)[C@H](C)O1` [Adriamycin] here?
Answer: Its IC50 is 15900 nM.

Question: And the IC50 ([3]; 48 hours incubation)?
Answer: Its IC50 is 98.2 nM.

Question: And the IC50 ([3]; 72 hours incubation)?
Answer: Its IC50 is 73.7 nM.

Question: And the IC50 ([4]; 24 hours incubation, assay optimization, read-out: IC50 (PA-1))?
Answer: The IC50 was 109 nM.

Question: And the IC50 ([4]; 48 hours incubation, assay optimization, read-out: IC50 (PA-1))?
Answer: The IC50 was 11.8 nM.

Question: And the IC50 ([4]; 72 hours incubation, assay optimization, read-out: IC50 (PA-1))?
Answer: The IC50 was 3.59 nM.

Question: And the IC50 [4, 9]?
Answer: The IC50 was 576 nM.

Question: What about the “Avg SI” value [4] of the same molecule?
Answer: The value was 7.02.

Question: For `CC[C@@H]1C(=O)N(C)c2cnc(Nc3ccc(C(=O)NC4CCN(C)CC4)cc3OC)nc2N1C1CCCC1` [BI-2536], which IC90 ([5]; Homo sapiens) is on record?
Answer: Its IC90 is 39.7 nM.

Question: What about the “Cell Lines Active” value [5] of the same molecule?
Answer: The value was 4.

Question: Which IC50 [6] does the source give for `COc1ccc2cc3[n+](cc2c1OC)CCc1cc2c(cc1-3)OCO2` [Berberine] here?
Answer: Its IC50 is 4410 ± 662 nM.

Question: What does the source list for `CC(C)C[C@H](NC(=O)[C@@H](NC(=O)c1cccc(-c2ccccc2)n1)[C@@H](C)O)B(O)O` [CEP-18770 (Delanzomib)]?
Answer: IC90 [5, 10]: 391 nM; Cell Lines Active [5]: 6

Question: Which IC90 [5, 10] does the source give for `CN(NC(=O)CC(=O)NN(C)C(=S)c1ccccc1)C(=S)c1ccccc1` [Elesclomol] here?
Answer: The IC90 was 283 nM.

Question: What about the IC50 ([5]; Homo sapiens, average over the cell lines in which the compound was active, read-out: average IC50) of the same molecule?
Answer: Its IC50 is 173 nM.

Question: What about the “Cell Lines Active” value [5] of the same molecule?
Answer: Its value is “six”.

Question: And the “Cell Lines Active” value ([5]; listed as Elesclomol (STA-4783))?
Answer: The value was 6.

Question: For `COc1cc(Nc2ncc(F)c(Nc3ccc4c(n3)N(COP(=O)(O)O)C(=O)C(C)(C)O4)n2)cc(OC)c1OC` [Fostamitinib], which IC50 ([1]; Homo sapiens) is on record?
Answer: The IC50 was 6240 ± 4060 nM.

Question: What about the “Average SI” value [1] of the same molecule?
Answer: Its value is over 100.

Question: And the “Average SI” value ([1]; listed as fostamatinib)?
Answer: The value was over 100.

Question: With `C[C@@H](Oc1cc(-n2cnc3ccc(CN4CCN(C)CC4)cc32)sc1C(N)=O)c1ccccc1C(F)(F)F` [GSK461364] as the molecule, how does the IC50 [6] read?
Answer: The IC50 was 3520 ± 133 nM.

Question: What about the “Average SI” value ([6]; vs HEK 293T, >100 = inactive in HEK293T) of the same molecule?
Answer: The value was 8.81 ± 0.333.

Question: Which IC90 ([5]; Homo sapiens) does the source give for `CN(C)C1CCN(C(=O)c2ccc(NC(=O)Nc3ccc(-c4nc(N5CCOCC5)nc(N5CCOCC5)n4)cc3)cc2)CC1` [Gedatolisib] here?
Answer: Its IC90 is 6800 nM.

Question: What about the “Cell Lines Active” value [5] of the same molecule?
Answer: Its value is 4.

Question: With `CC[C@@]1(O)C(=O)OCc2c1cc1n(c2=O)Cc2c-1nc1ccccc1c2/C=N/OC(C)(C)C` [Gimatecan] as the molecule, how does the IC50 [4, 9] read?
Answer: The IC50 was 33.7 nM.

Question: And the “Avg SI” value [4]?
Answer: Its value is 12.5.

Question: And the IC90 [5, 10]?
Answer: Its IC90 is 275 ± 28 nM.

Question: What about the “Cell Lines Active” value [5] of the same molecule?
Answer: Its value is 4.

Question: For `CCN(CC)Cc1ccc2cc(COC(=O)Nc3ccc(C(=O)NO)cc3)ccc2c1` [Givinostat], which “Efficacy (%) (HEK 293T toxicity)” value [7, 11] is on record?
Answer: The value was 65.6%.

Question: And the IC50 ([7]; Homo sapiens, HEK-293T)?
Answer: The IC50 was 2910 nM.

Question: What about the “toxicity to HEK 293T cells” value ([7]; human) of the same molecule?
Answer: The value was “equally toxic to HEK 293T cells”.

Question: And the “Efficacy (%) (independent screen, HEK 293T)” value [8]?
Answer: Its value is 112%.

Question: And the “Independent Screen (confirmation of HEK 293T toxicity)” value [8]?
Answer: The value was “Confirmed toxic”.

Question: What about the IC50 ([8]; independent screen) of the same molecule?
Answer: The IC50 was 1110 nM.

Question: And the IC50 ([5]; Homo sapiens, toxic compounds, average over all cancer cell lines, 48 h, mean ± S.D., read-out: Average IC50)?
Answer: The IC50 was 3500 ± 3880 nM.

Question: What about the “Average SI” value [5, 12] of the same molecule?
Answer: The value was 1.74 ± 1.25.

Question: For `Cc1csc(NC(=O)CSc2nc3c(c(C(F)(F)F)c2C#N)CCC3)n1` [Irestatin 9389], which “Efficacy (%) (HEK 293T toxicity)” value [7, 11] is on record?
Answer: The value was 102%.

Question: And the IC50 [7, 11]?
Answer: The IC50 was 1340 nM.

Question: What about the IC50 ([5]; toxic compounds, average over all cancer cell lines, 48 h, mean ± S.D., read-out: Average IC50) of the same molecule?
Answer: Its IC50 is 3520 ± 3120 nM.

Question: What about the “Average SI” value [5, 12] of the same molecule?
Answer: The value was 0.51 ± 0.20.

Question: What does the source list for `C[C@@H](Oc1ccc2[nH]nc(/C=C/c3cnn(CCO)c3)c2c1)c1c(Cl)cncc1Cl` [LY2874455]?
Answer: Avg SI [2]: 38.8; IC50 ([2]; Homo sapiens): 240 nM

Source: article PMC6302136, “Quantitative Chemotherapeutic Profiling of Gynecologic Cancer Cell Lines Using Approved Drugs and Bioactive Compounds^” (Translational Oncology, 2018)
